From patent publication US20250213705A1, “PSMA TARGETING LIGANDS AND METHODS OF USE” (Bright Peak Therapeutics AG, priority 2023, published 2025)
Numbered stars: 1 amine (or outer) side, 2 acyl side, 3 side chain; on linkers, the order of the positions; unused ones are H or OH. Square brackets hold non-standard residues; d marks the D form. Side chains are listed from the residue outwards. Peptide text beside a SMILES is read from it. 2Nal = N[C@@H](Cc1ccc2ccccc2c1)C(=O)O; Trx = NC[C@H]1CC[C@H](C(=O)O)CC1; PEG3 = NCCOCCOCCOCCC(=O)O; Dap = NC[C@H](N)C(=O)O; CO = O=C([*:1])[*:2]

Tests used:
[1] = target: Recombinant Human PSMA/FOLH1 Protein (Homo sapiens (Human), UniProt Q04609); assay: Inhibition assay (Amplex Red glutamic acid/glutamate oxidase, NAAG substrate); assay type: biochemical; settings: Target PSMA, average of N replicates; for IC50: PSMA 5 nM, NAAG 40 μM; for Ki: calculated based on Cheng-Prusoff equation
Method: Amplex™ Red Glutamic Acid/Glutamate Oxidase Assay Kit Catalog number: A12221 (Thermofisher); Recombinant Human PSMA/FOLH1 Protein, CF (rnd systems); N-Acetyl-Asp-Glu (NAAG) (Sigma Aldrich; 96 well half area plate; Enspire plate reader.
Prepare a working solution of 100 μM Amplex® Red reagent containing 0.25 U/mL HRP, 0.08 U/mL L-glutamate oxidase, 0.5 U/mL 1-glutamate-pyruvate transaminase, 200 μM L-alanine and keep protected from light. […] Final concentration is 5 nM. Transfer 10 μl/well of the inhibitor solution previously prepared in a separate 96 wells/plate.
Pipette 20 μl/well of the working solution prepared above. Incubate the reactions for 30 min at 37° C., protected from light. Because the assay is continuous (not terminated), fluorescence may be measured at multiple time points to follow the kinetics of the reactions. Measure the fluorescence in a fluorescence microplate reader using excitation in the range of 530-560 nm and emission detection at ˜590 nm. Ec50s were determined with GraphPad Prism. Ki is calculated based on Cheng-Prusoff equation.

[2] = target: human FOLH1 (Homo sapiens (Human), UniProt Q04609); assay: SPR analysis of binding kinetics to biotinylated FOLH1 (Biacore 8K); settings: ligand PSMA; for Kon: association rate; for koff: dissociation rate; for Kd: kinetic 1:1 binding model
Method: The interaction of PSMA-binding variants with human FOLH1 was measured with Surface Plasmon Resonance (SPR) technology. Biotinylated FOLH1 was captured at a concentration of 30 μg/mL onto a Streptavidin chip.
Binding kinetics of the analytes were measured with a Biacore 8K instrument in two-fold serial dilutions starting at 500 nM down to 1.95 nM in single cycle kinetic measurements. After each cycle, needles were washed with 50% DMSO. To measure the association to the FOLH1 protein, the samples were injected with a flow rate of 30 μL/min for 90 s, followed by 1200 s buffer only to detect the dissociation. The used running buffer was 1×PBS with 0.05% Tween20 and 2% DMSO. The relative response units (RU, Y-axis) are plotted against time (s, X-axis) and analyzed in a kinetic 1:1 binding model.
In a different setup, biotinylated FOLH1 was captured at a concentration of 0.8 μg/mL and the running buffer was 1×PBS with 0.05% Tween20.

Chain of human FOLH1 (Q04609 whole entry): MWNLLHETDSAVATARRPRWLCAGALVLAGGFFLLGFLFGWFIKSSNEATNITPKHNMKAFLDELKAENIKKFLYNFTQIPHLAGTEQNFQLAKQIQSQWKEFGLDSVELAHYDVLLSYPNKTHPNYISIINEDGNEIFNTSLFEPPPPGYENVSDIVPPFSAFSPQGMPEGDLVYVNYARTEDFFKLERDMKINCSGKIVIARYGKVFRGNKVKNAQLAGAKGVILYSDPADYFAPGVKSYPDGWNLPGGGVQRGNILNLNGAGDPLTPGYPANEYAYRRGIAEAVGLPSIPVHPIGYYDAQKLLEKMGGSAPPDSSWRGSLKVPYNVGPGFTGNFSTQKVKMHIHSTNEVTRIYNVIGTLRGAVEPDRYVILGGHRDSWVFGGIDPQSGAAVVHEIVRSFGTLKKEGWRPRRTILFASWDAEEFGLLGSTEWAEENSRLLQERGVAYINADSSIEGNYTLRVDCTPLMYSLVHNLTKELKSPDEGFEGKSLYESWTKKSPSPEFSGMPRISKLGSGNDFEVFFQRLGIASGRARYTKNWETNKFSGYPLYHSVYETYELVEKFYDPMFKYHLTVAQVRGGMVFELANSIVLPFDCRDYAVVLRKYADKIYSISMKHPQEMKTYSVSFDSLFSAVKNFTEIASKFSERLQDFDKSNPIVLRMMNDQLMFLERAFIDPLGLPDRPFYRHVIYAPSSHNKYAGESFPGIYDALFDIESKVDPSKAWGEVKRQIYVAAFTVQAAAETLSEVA
Chain of Recombinant Human PSMA/FOLH1 Protein (Q04609 whole entry): as above

Structure (SMILES)	IC50 [1] [nM]	Ki [1] [nM]	Kon [2]	koff [2] [s⁻¹]	Kd [2] [nM]
CC(=O)NCCOCCOCCOCCC(=O)NC[C@H]1CC[C@H](C(=O)N[C@@H](Cc2c[nH]c3ccccc23)C(=O)NCCCC[C@H](NC(=O)N[C@@H](CCC(=O)O)C(=O)O)C(=O)O)CC1 (stereo in doubt) [Compound 2]	25.1	0.18	158000 1.ms	3.3e-05	0.208
CC(=O)NCCOCCOCCOCCC(=O)N[C@@H]1C[C@@H](C(=O)N[C@@H](Cc2ccc3ccccc3c2)C(=O)NCCCC[C@H](NC(=O)N[C@@H](CCC(=O)O)C(=O)O)C(=O)O)N(C(=O)CCCOc2cc(C#N)cc(C#N)c2)C1 (stereo in doubt) [Compound 82]	1.8	0.0129	72200 1.ms	0.000381	5.27
CC(=O)NCCOCCOCCOCCC(=O)NC[C@H]1CC[C@H](C(=O)N[C@H](Cc2c[nH]c3ccccc23)C(=O)NCCCC[C@H](NC(=O)N[C@@H](CCC(=O)O)C(=O)O)C(=O)O)CC1 [Compound 5]	81.7	0.584	195000 1.ms	0.000543	2.78
CC(=O)NCCOCCOCCOCCC(=O)NC[C@H]1CC[C@H](C(=O)N[C@@H](Cc2ccc(-c3ccccc3)cc2)C(=O)NCCCC[C@H](NC(=O)N[C@@H](CCC(=O)O)C(=O)O)C(=O)O)CC1 [Compound 7]	171	1.23	293000 1.ms	0.00167	5.72
CC(=O)NCCOCCOCCOCCC(=O)NC[C@H]1CC[C@H](C(=O)N[C@@H](Cc2cccc(C(=O)O)c2)C(=O)NCCCC[C@H](NC(=O)N[C@@H](CCC(=O)O)C(=O)O)C(=O)O)CC1 [Compound 10]	21.3	0.152			2.02
CC(=O)NCCOCCOCCOCCC(=O)NC[C@H]1CC[C@H](C(=O)N[C@@H](Cc2c[nH]c3ccc(F)cc23)C(=O)NCCCC[C@H](NC(=O)N[C@@H](CCC(=O)O)C(=O)O)C(=O)O)CC1 [Compound 12]	41.5	0.297	250000 1.ms	0.000142	0.568
CC(=O)NCCOCCOCCOCCC(=O)NC[C@H]1CC[C@H](C(=O)N[C@@H](Cc2ccc(N)cc2)C(=O)NCCCC[C@H](NC(=O)N[C@@H](CCC(=O)O)C(=O)O)C(=O)O)CC1 [Compound 14]	286	2.05	131000 1.ms	0.000618	4.71
CC(=O)NCCOCCOCCOCCC(=O)NC[C@H]1CC[C@H](C(=O)N[C@@H](Cc2ccc3ccccc3c2)C(=O)NCCCC[C@H](NC(=O)N[C@@H](CC(=O)O)C(=O)O)C(=O)O)CC1 [Compound 23]			291000 1.ms	0.0349	
CC(=O)NCCOCCOCCOCCC(=O)NC[C@H]1CC[C@H](C(=O)N[C@@H](Cc2ccc3ccccc3c2)C(=O)NCCCC[C@H](NC(=O)N[C@@H](Cc2cccc(C(=O)O)c2)C(=O)O)C(=O)O)CC1 [Compound 30]	602000	4300			
CC(=O)NCCOCCOCCOCCC(=O)NC[C@H]1CC[C@H](C(=O)N[C@@H](Cc2ccc3ccccc3c2)C(=O)NCCCC[C@H](NC(=O)N[C@@H](Cc2ccc(C(=O)O)cc2)C(=O)O)C(=O)O)CC1 [Compound 31]	260000	1860			
CC(=O)NCCOCCOCCOCCC(=O)NC[C@H]1CC[C@H](C(=O)N[C@@H](Cc2ccc3ccccc3c2)C(=O)NCC(=O)N[C@@H](CNC(=O)N[C@@H](CCC(=O)O)C(=O)O)C(=O)O)CC1 [Compound 32] (Ac-[PEG3][Trx][2Nal]G[Dap]([CO-Glu])-OH)	434000	3100			
CC(=O)NCCOCCOCCOCCC(=O)NC[C@H]1CC[C@H](C(=O)N[C@@H](Cc2ccc3ccccc3c2)C(=O)NCCCC(=O)N[C@@H](CNC(=O)N[C@@H](CCC(=O)O)C(=O)O)C(=O)O)CC1 [Compound 33]	583000	4170			
CC(=O)NCCOCCOCCOCCC(=O)NC[C@H]1CC[C@H](C(=O)N[C@H](Cc2c[nH]cn2)C(=O)NCCCC[C@H](NC(=O)N[C@@H](CCC(=O)O)C(=O)O)C(=O)O)CC1 [Compound 42]	2240	16			
CC(=O)NCCOCCOCCOCCC(=O)NC[C@H]1CC[C@H](C(=O)N[C@H](Cc2ccc(O)cc2)C(=O)NCCCC[C@H](NC(=O)N[C@@H](CCC(=O)O)C(=O)O)C(=O)O)CC1 [Compound 43]	679	4.86			
CC(=O)NCCOCCOCCOCCC(=O)NC[C@H]1CC[C@H](C(=O)N[C@@H](Cc2ccncc2)C(=O)NCCCC[C@H](NC(=O)N[C@@H](CCC(=O)O)C(=O)O)C(=O)O)CC1 [Compound 44]	177	1.27			
CC(=O)NCCOCCOCCOCCC(=O)NC[C@H]1CC[C@H](C(=O)N[C@@H](Cc2cscn2)C(=O)NCCCC[C@H](NC(=O)N[C@@H](CCC(=O)O)C(=O)O)C(=O)O)CC1 [Compound 45]	554	3.96			
CC(=O)NCCOCCOCCOCCC(=O)NC[C@H]1CC[C@H](C(=O)N[C@H](CC(=O)NCCCC[C@H](NC(=O)N[C@@H](CCC(=O)O)C(=O)O)C(=O)O)Cc2ccccc2)CC1 [Compound 46]	446	3.19			
CC(=O)NCCOCCOCCOCCC(=O)NC[C@H]1CC[C@H](C(=O)N[C@@H](CCCOc2cc(C#N)cc(C#N)c2)C(=O)NCCCC[C@H](NC(=O)N[C@@H](CCC(=O)O)C(=O)O)C(=O)O)CC1 [Compound 47]	2060	14.7			
C#CC[C@H](NC(=O)N[C@@H](CCCCNC(=O)[C@H](Cc1ccc2ccccc2c1)NC(=O)[C@H]1CC[C@H](CNC(=O)CCOCCOCCOCCNC(C)=O)CC1)C(=O)O)C(=O)O [Compound 50]	17600	126			
CC(=O)NCCOCCOCCOCCC(=O)N[C@@H](CCCOc1cc(C#N)cc(C#N)c1)C(=O)N[C@@H](Cc1ccc2ccccc2c1)C(=O)NCCCC[C@H](NC(=O)N[C@@H](CCC(=O)O)C(=O)O)C(=O)O [Compound 51]	1710	12.2			
CC(=O)NCCOCCOCCOCCC(=O)N[C@@H](CCCOc1cc(C#N)cc(C#N)c1)C(=O)NCCC(=O)N[C@@H](Cc1ccc2ccccc2c1)C(=O)NCCCC[C@H](NC(=O)N[C@@H](CCC(=O)O)C(=O)O)C(=O)O [Compound 53]	11.2	0.0801			
CC(=O)NCCOCCOCCOCCC(=O)N(CCCOc1cc(C#N)cc(C#N)c1)CC(=O)N[C@@H](Cc1ccc2ccccc2c1)C(=O)NCCCC[C@H](NC(=O)N[C@@H](CCC(=O)O)C(=O)O)C(=O)O [Compound 78]			487000 1.ms	0.000208	
CC(=O)NCCOCCOCCOCCC(=O)N1C[C@H](NC(=O)CCCOc2cc(C#N)cc(C#N)c2)C[C@H]1C(=O)N[C@@H](Cc1ccc2ccccc2c1)C(=O)NCCCC[C@H](NC(=O)N[C@@H](CCC(=O)O)C(=O)O)C(=O)O [Compound 80]			243000 1.ms	0.000599	
CC(=O)NCCOCCOCCOCCC(=O)N[C@@H]1C[C@@H](C(=O)N[C@@H](Cc2ccc3ccccc3c2)C(=O)NCCCC[C@H](NC(=O)N[C@@H](CCC(=O)O)C(=O)O)C(=O)O)N(C(=O)COc2cc(C#N)cc(C#N)c2)C1 [Compound 81]			90000 1.ms	0.000371	
CC(=O)NCCOCCOCCOCCC(=O)N[C@@H](Cc1ccncc1)C(=O)NCC(=O)N[C@@H](Cc1ccc2ccccc2c1)C(=O)NCCCC[C@H](NC(=O)N[C@@H](CCC(=O)O)C(=O)O)C(=O)O [Compound 85]	10.6	0.0759			
CC(=O)NCCOCCOCCOCCC(=O)N(CCCOc1cc(C(F)(F)F)cc(C(F)(F)F)c1)CC(=O)N[C@@H](Cc1ccc2ccccc2c1)C(=O)NCCCC[C@H](NC(=O)N[C@@H](CCC(=O)O)C(=O)O)C(=O)O [Compound 86]			339000 1.ms	0.000397	
CC(=O)NCCOCCOCCOCCC(=O)N1C[C@H](NC(=O)CCCOc2cc(C#N)cc(C#N)c2)C[C@H]1C(=O)NCC(=O)N[C@@H](Cc1ccc2ccccc2c1)C(=O)NCCCC[C@H](NC(=O)N[C@@H](CCC(=O)O)C(=O)O)C(=O)O [Compound 91]			71500 1.ms	0.000258	
CC(=O)NCCOCCOCCOCCC(=O)N[C@@H]1C[C@@H](C(=O)NCC(=O)N[C@@H](Cc2ccc3ccccc3c2)C(=O)NCCCC[C@H](NC(=O)N[C@@H](CCC(=O)O)C(=O)O)C(=O)O)N(C(=O)CCCOc2cc(C#N)cc(C#N)c2)C1 [Compound 92]			297000 1.ms	0.000301	
CC(=O)NCCOCCOCCOCCC(=O)N[C@@H](Cc1ccc(C(=O)O)cc1)C(=O)NCC(=O)N[C@@H](Cc1ccc2ccccc2c1)C(=O)NCCCC[C@H](NC(=O)N[C@@H](CCC(=O)O)C(=O)O)C(=O)O [Compound 94]			112000 1.ms	0.000261	
